From patent US12077503B2, “Substituted cyclic amides and their use as herbicides” (FMC CORPORATION, priority 2015, dated 2024)

Columns and labels:
Format in all cases: in vivo
[1] = system: redroot pigweed (Amaranthus retroflexus); test: Test G Post-Emergence Protocol; conditions: Amaranthus retroflexus, post-emergence, 312 h, read-out: Pigweed, Redroot damage rating; for pest or weed control at 15.625 g/ha: 15.625 g ai/ha, evaluated after 13 days (100=total damage to plant; 0=no damage to plant); for pest or weed control at 62.5 g/ha: 62.5 g ai/ha; for pest or weed control at 62.5 g/ha / pest or weed control at 250 g/ha: evaluated after 13 days, 100=total damage to plant, 0=no damage to plant; for pest or weed control at 250 g/ha: 250 g ai/ha
Procedure, shortened: (§1)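 Eight days post-sowing, plants received a spray of test compound (acetone/water 50:50, 0.5% Tween 20) at 15.625, 62.5 or 250 g/ha. Glasshouse regime thereafter: 24/16 °C, 14 h light, 65% humidity. Assessment after 13 days on a 0–100 damage scale.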

[2] = system: giant foxtail (Setaria faberi); test: Test G Post-Emergence Protocol; conditions: Setaria faberi, post-emergence, 312 h, read-out: Foxtail, Giant damage rating; for pest or weed control at 15.625 g/ha: 15.625 g ai/ha, evaluated after 13 days (100=total damage to plant; 0=no damage to plant); for pest or weed control at 62.5 g/ha: 62.5 g ai/ha; for pest or weed control at 62.5 g/ha / pest or weed control at 250 g/ha: evaluated after 13 days, 100=total damage to plant, 0=no damage to plant; for pest or weed control at 250 g/ha: 250 g ai/ha
Procedure, shortened: as §1

[3] = system: velvetleaf (Abutilon theophrasti); test: Test G Post-Emergence Protocol; conditions: Abutilon theophrasti, post-emergence, 312 h, read-out: Velvetleaf damage rating; for pest or weed control at 15.625 g/ha: 15.625 g ai/ha, evaluated after 13 days (100=total damage to plant; 0=no damage to plant); for pest or weed control at 62.5 g/ha: 62.5 g ai/ha; for pest or weed control at 62.5 g/ha / pest or weed control at 250 g/ha: evaluated after 13 days, 100=total damage to plant, 0=no damage to plant; for pest or weed control at 250 g/ha: 250 g ai/ha
Procedure, shortened: as §1

corn (Zea mays) [4] = test: Test G Post-Emergence Protocol; conditions: Zea mays, post-emergence, 312 h, read-out: Corn damage rating; for plant injury at 15.625 g/ha: 15.625 g ai/ha, evaluated after 13 days (100=total damage to plant; 0=no damage to plant); for plant injury at 62.5 g/ha: 62.5 g ai/ha; for plant injury at 62.5 g/ha / plant injury at 250 g/ha: evaluated after 13 days, 100=total damage to plant, 0=no damage to plant; for plant injury at 250 g/ha: 250 g ai/ha
Procedure, shortened: as §1

[5] = system: ivy-leaved morning glory (Ipomoea hederacea); test: Test G Post-Emergence Protocol; conditions: Ipomoea, post-emergence, 312 h, read-out: Morningglory, Ivy-leaved damage rating; for pest or weed control at 15.625 g/ha: 15.625 g ai/ha, evaluated after 13 days (100=total damage to plant; 0=no damage to plant); for pest or weed control at 62.5 g/ha: 62.5 g ai/ha; for pest or weed control at 62.5 g/ha / pest or weed control at 250 g/ha: evaluated after 13 days, 100=total damage to plant, 0=no damage to plant; for pest or weed control at 250 g/ha: 250 g ai/ha
Procedure, shortened: as §1

[6] = system: barnyardgrass (Echinochloa crus-galli); test: Test G Post-Emergence Protocol; conditions: Echinochloa crus-galli, post-emergence, 312 h, read-out: Barnyardgrass damage rating; for pest or weed control at 15.625 g/ha: 15.625 g ai/ha, evaluated after 13 days (100=total damage to plant; 0=no damage to plant); for pest or weed control at 62.5 g/ha: 62.5 g ai/ha; for pest or weed control at 62.5 g/ha / pest or weed control at 250 g/ha: evaluated after 13 days, 100=total damage to plant, 0=no damage to plant; for pest or weed control at 250 g/ha: 250 g ai/ha
Procedure, shortened: as §1

[7] = system: redroot pigweed (Amaranthus retroflexus); test: Test G Pre-Emergence Protocol; conditions: Amaranthus retroflexus, pre-emergence, 312 h, evaluated after 13 days; for pest or weed control at 15.625 g/ha: 15.625 g ai/ha; for pest or weed control at 15.625 g/ha / pest or weed control at 250 g/ha: read-out: Pigweed, Redroot damage rating (100=total damage to plant; 0=no damage to plant); for pest or weed control at 62.5 g/ha: 62.5 g ai/ha, 100=total damage to plant, 0=no damage to plant, read-out: Pigweed, Redroot damage rating; for pest or weed control at 250 g/ha: 250 g ai/ha
Procedure, shortened: (§2)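 Seeds were sown in standard soil and kept one day in a glasshouse (24/16° C day/night, 14 h light, 65% humidity), then sprayed with compound in acetone/water (50:50) containing 0.5% Tween 20 at 15.625, 62.5 or 250 g/ha. Damage was scored after 13 days (0 = none, 100 = total).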

[8] = system: giant foxtail (Setaria faberi); test: Test G Pre-Emergence Protocol; conditions: Setaria faberi, pre-emergence, 312 h, evaluated after 13 days; for pest or weed control at 15.625 g/ha: 15.625 g ai/ha; for pest or weed control at 15.625 g/ha / pest or weed control at 250 g/ha: read-out: Foxtail, Giant damage rating (100=total damage to plant; 0=no damage to plant); for pest or weed control at 62.5 g/ha: 62.5 g ai/ha, 100=total damage to plant, 0=no damage to plant, read-out: Foxtail, Giant damage rating; for pest or weed control at 250 g/ha: 250 g ai/ha
Procedure, shortened: as §2

[9] = system: velvetleaf (Abutilon theophrasti); test: Test G Pre-Emergence Protocol; conditions: Abutilon theophrasti, pre-emergence, 312 h, evaluated after 13 days; for pest or weed control at 15.625 g/ha: 15.625 g ai/ha; for pest or weed control at 15.625 g/ha / pest or weed control at 250 g/ha: read-out: Velvetleaf damage rating (100=total damage to plant; 0=no damage to plant); for pest or weed control at 62.5 g/ha: 62.5 g ai/ha, 100=total damage to plant, 0=no damage to plant, read-out: Velvetleaf damage rating; for pest or weed control at 250 g/ha: 250 g ai/ha
Procedure, shortened: as §2

corn (Zea mays) [10] = test: Test G Pre-Emergence Protocol; conditions: Zea mays, pre-emergence, 312 h, evaluated after 13 days; for plant injury at 15.625 g/ha: 15.625 g ai/ha; for plant injury at 15.625 g/ha / plant injury at 250 g/ha: read-out: Corn damage rating (100=total damage to plant; 0=no damage to plant); for plant injury at 62.5 g/ha: 62.5 g ai/ha, 100=total damage to plant, 0=no damage to plant, read-out: Corn damage rating; for plant injury at 250 g/ha: 250 g ai/ha
Procedure, shortened: as §2

[11] = system: ivy-leaved morning glory (Ipomoea hederacea); test: Test G Pre-Emergence Protocol; conditions: Ipomoea, pre-emergence, 312 h, evaluated after 13 days; for pest or weed control at 15.625 g/ha: 15.625 g ai/ha; for pest or weed control at 15.625 g/ha / pest or weed control at 250 g/ha: read-out: Morningglory, Ivy-leaved damage rating (100=total damage to plant; 0=no damage to plant); for pest or weed control at 62.5 g/ha: 62.5 g ai/ha, 100=total damage to plant, 0=no damage to plant, read-out: Morningglory, Ivy-leaved damage rating; for pest or weed control at 250 g/ha: 250 g ai/ha
Procedure, shortened: as §2

[12] = system: barnyardgrass (Echinochloa crus-galli); test: Test G Pre-Emergence Protocol; conditions: Echinochloa crus-galli, pre-emergence, 312 h, evaluated after 13 days; for pest or weed control at 15.625 g/ha: 15.625 g ai/ha; for pest or weed control at 15.625 g/ha / pest or weed control at 250 g/ha: read-out: Barnyardgrass damage rating (100=total damage to plant; 0=no damage to plant); for pest or weed control at 62.5 g/ha: 62.5 g ai/ha, 100=total damage to plant, 0=no damage to plant, read-out: Barnyardgrass damage rating; for pest or weed control at 250 g/ha: 250 g ai/ha
Procedure, shortened: as §2

| Compound | pest or weed control at 15.625 g/ha [1] [%] | pest or weed control at 62.5 g/ha [1] [%] | pest or weed control at 250 g/ha [1] [%] | pest or weed control at 15.625 g/ha [2] [%] | pest or weed control at 62.5 g/ha [2] [%] | pest or weed control at 250 g/ha [2] [%] | pest or weed control at 15.625 g/ha [3] [%] | pest or weed control at 62.5 g/ha [3] [%] | pest or weed control at 250 g/ha [3] [%] | plant injury at 15.625 g/ha (corn (Zea mays) [4]) [%] | plant injury at 62.5 g/ha (corn (Zea mays) [4]) [%] | plant injury at 250 g/ha (corn (Zea mays) [4]) [%] | pest or weed control at 15.625 g/ha [5] [%] | pest or weed control at 62.5 g/ha [5] [%] | pest or weed control at 250 g/ha [5] [%] | pest or weed control at 15.625 g/ha [6] [%] | pest or weed control at 62.5 g/ha [6] [%] | pest or weed control at 250 g/ha [6] [%] | pest or weed control at 15.625 g/ha [7] [%] | pest or weed control at 62.5 g/ha [7] [%] | also measured |
| --- | --- | --- | --- | --- | --- | --- | --- | --- | --- | --- | --- | --- | --- | --- | --- | --- | --- | --- | --- | --- | --- |
| CN1C[C@H](c2ccc(C(F)(F)F)cc2)[C@@H](C(=O)Nc2cccc3c2S(=O)(=O)CC3)C1=O (racemic) [Compound 1737] | 0 | 0 | 0 | 0 | 0 | 0 | 0 | 0 | 0 | 0 | 0 | 0 | 0 | 0 | 0 | 0 | 0 | 0 | 0 | 0 | pest or weed control at 250 g/ha [7]: 0%; pest or weed control at 15.625 g/ha [8]: 0%; pest or weed control at 62.5 g/ha [8]: 0%; pest or weed control at 250 g/ha [8]: 0%; pest or weed control at 15.625 g/ha [9]: 0%; pest or weed control at 62.5 g/ha [9]: 0%; pest or weed control at 250 g/ha [9]: 0%; plant injury at 15.625 g/ha (corn (Zea mays) [10]): 0%; plant injury at 62.5 g/ha (corn (Zea mays) [10]): 0%; plant injury at 250 g/ha (corn (Zea mays) [10]): 0%; pest or weed control at 15.625 g/ha [11]: 0%; pest or weed control at 62.5 g/ha [11]: 0%; pest or weed control at 250 g/ha [11]: 0%; pest or weed control at 15.625 g/ha [12]: 0%; pest or weed control at 62.5 g/ha [12]: 0%; pest or weed control at 250 g/ha [12]: 0% |
| CON1C[C@@H](c2cccc(C(F)(F)F)c2)[C@H](C(=O)Nc2cccc(F)c2F)C1=O (racemic) [Compound 1763] | 0 | 0 | 20 | 60 | 60 | 70 | 0 | 10 | 20 | 20 | 20 | 70 | 30 | 40 | 50 | 40 | 60 | 70 | 0 | 0 | pest or weed control at 250 g/ha [7]: 0%; pest or weed control at 15.625 g/ha [8]: 80%; pest or weed control at 62.5 g/ha [8]: 90%; pest or weed control at 250 g/ha [8]: 90%; pest or weed control at 15.625 g/ha [9]: 0%; pest or weed control at 62.5 g/ha [9]: 0%; pest or weed control at 250 g/ha [9]: 0%; plant injury at 15.625 g/ha (corn (Zea mays) [10]): 0%; plant injury at 62.5 g/ha (corn (Zea mays) [10]): 50%; plant injury at 250 g/ha (corn (Zea mays) [10]): 80%; pest or weed control at 15.625 g/ha [11]: 0%; pest or weed control at 62.5 g/ha [11]: 0%; pest or weed control at 250 g/ha [11]: 20%; pest or weed control at 15.625 g/ha [12]: 20%; pest or weed control at 62.5 g/ha [12]: 60%; pest or weed control at 250 g/ha [12]: 80% |
